Literature values, collected in patent publication US11793802B2, “Treatment of acute myeloid leukemia (AML) with venetoclax failure” (Sumitomo Pharma Oncology, Inc., priority 2019, dated 2023).
One block for each molecule: values may come before it.

Assays:
[1] = tested on: MCL-1 protein
[2] = tested on: hematological cancers, including AML; conditions: patients treated with venetoclax

- oral bioavailability: orally bioavailable
Structure (SMILES): CN1CC[C@H](c2c(OP(=O)(O)O)cc(O)c3c(=O)cc(-c4ccccc4Cl)oc23)[C@H](O)C1 [Formula (I-b)]

Structure (SMILES): Nc1ncn([C@@H]2O[C@H](CO)[C@@H](O)[C@H]2O)c(=O)n1 [azacitidine]
- effect on MCL-1 protein levels in blasts [1]: reduce MCL-1 protein levels

Structure (SMILES): CC1(C)CCC(CN2CCN(c3ccc(C(=O)NS(=O)(=O)c4ccc(NCC5CCOCC5)c([N+](=O)[O-])c4)c(Oc4cnc5[nH]ccc5c4)c3)CC2)=C(c2ccc(Cl)cc2)C1 [venetoclax]
- patients demonstrated complete remission [2]: 8-20%
- patients showed no response [2]: 20-30%
- patients showed disease progression ([2]; after 18 months): ~50%
